Assay results taken from US7511029B2, “Pesticidal diazene oxide carboxylates” (Chemtura Corporation, priority 2007, dated 2009).

Assays:
Tetranychus urticae Koch [1] = assay: Mite ovicide/larvicide (MIOVL) test; format: in vivo; settings: eggs/immature mites on cowpea leaves sprayed with 1000 ppm solution; examined nine days following treatment; effect larvicidal (L)
Description: (§1) The remaining examples relate to the pesticidal use of compounds of this invention. In all these examples a stock solution for the compounds was prepared at 3000 ppm by dissolving 0.3 grams of the compound to be tested in 10 mL of acetone and adding 90 mL of distilled water plus four drops of ethoxylated sorbitan monolaurate, or a similar suitable wetting agent. For each example that follows, this stock solution was used and the specified dilutions made. All the tests discussed below, which involved treatment with compounds of this invention, were always repeated with controls, in which the active compound was not provided, to permit a comparison upon which the percent control was calculated. One day before treatment, a “figure 8” configuration of tree tanglefoot was applied to each of two cowpea primary leaves, one from each of two plants in a pot. In each Figure, the circle nearer the stem was designated for the mite ovicide/larvicide test and the circle further from the stem was designated for the mite adulticide test. Groups of adult mites (Tetranychus urticae Koch) were transferred into ovicide circles one day before treatment and the females were allowed to deposit eggs until one hour before treatment when they were removed. Plants were sprayed to run off with a 1000 ppm solution diluted from the 3000 ppm stock solution. […]

Tetranychus urticae Koch [2] = assay: Mite adulticide (MI) test; format: in vivo; settings: adult mites on cowpea leaves sprayed to run off with 1000 ppm solution; mites transferred one day after treatment, examined five days later
Description: as §1

melting point: 102 to 106 °C
Structure (SMILES): COc1ccc(-c2ccccc2)cc1[N+]([O-])=NC(=O)OC(C)C [Compound 1, 1-Methylethyl 2-(4-methoxy-[1,1′-biphenyl]-3-yl)diazenecarboxylate 2-oxide]
MIOVL (L) percent control (Tetranychus urticae Koch [1]): 100 % Control
MI percent control (Tetranychus urticae Koch [2]): 100 % Control
